The text below walks through data of patent publication US20160000702A1, “PHARMACEUTICAL COMPOSITION FOR ENHANCED TRANSMUCOSAL ADMINSTRATION OF BENZODIAZEPINES” (EASTGATE PHARMACEUTICALS INC., priority 2013, published 2016).

≈ marks a conversion by molar mass, not a printed value.

For data set [1] the following is noted: intranasal, human patients, anti-seizure activity; cited from earlier work.
The next data set in a line: physchem. Conditions: for solubility: oil or lipid. The protocol:
After combining of pre-weighed amounts of components they were gently triturated at room temperature (20-22° C.) using a stainless steel spatula until liquid phase is formed.

A further data set has as its system PTZ induced seizures. Briefly: Timed intravenous PTZ infusion test (ivPTZ). In kind it is in vivo, mice. Conditions: Lorazepam 2.5 mg/kg (Graph 5). The source says:
For investigation of anti-seizure activity of invented formulations, a timed intravenous PTZ infusion test was employed.
The technique of timed i.v. PTZ (pentylenetetrazole) infusion test (ivPTZ) is a simple, reproducible and fast method for assessment of onset, peak, duration and potency of various anticonvulsants and proconvulsants in animals. This test provides an extremely sensitive parametric method for assessing seizure threshold in individual animals and a quantifiable endpoint can be obtained with a minimal number of animals. Different seizure types can be chosen as endpoint in this test. Usually, the first seizure occurring during the PTZ infusion is a myoclonic twitch, followed by clonic and, later, tonic seizures. […]
During the infusion, mice are observed for the onset of different types of seizures. The time latencies from the start of infusion to the appearance of the first clonus (characterized by rapid involuntary rhythmic contraction and relaxation of limbs), lasting longer than 5 seconds, are recorded. […]
The infusion of PTZ will be terminated at 2 min, in case of non-appearance of clonic seizures. For such animals, the dose of PTZ in mg/kg infused during the course of 2 min is calculated as the threshold dose.
The threshold doses of PTZ producing clonic seizures are calculated (in mg/kg) using the following formula: […]

A short description of data set [2]: Water solubility of Lorazepam in saline. Particulars: saline or isotonic.

Consider `Cc1ncc2n1-c1ccc(Cl)cc1C(c1ccccc1F)=NC2` [Midazolam], for which the Onset of action result in data set [1] is recorded as “approximately 10 minutes”.
Turning to `O=C1Nc2ccc(Cl)cc2C(c2ccccc2Cl)=NC1O` (stereo not drawn) [Lorazepam], the solubility (in general, the dissolved amount per volume that the medium holds) in “physchem” (Lorazepam solubility in MCT with 5% Menthol, MCT oil + 5% Menthol by weight) was 5500 µg/mL; in “physchem” (Lorazepam solubility in MCT with 8% Menthol, MCT oil + 8% Menthol), 6800 µg/mL; in the data set “physchem” (Solubility in capric/caprylic triglycerides (MCT oil), pure MCT oil, RT), 4300 µg/mL (≈ 13.4 mM); in the data set “physchem” (Solubility of Lorazepam in peppermint oil, peppermint oil containing about 45% of menthol), 38900 µg/mL (≈ 121 mM); in data set [2], ~27 µg/mL (≈ 0.0841 mM). Also, in the data set “physchem” (versus pure MCT oil), the “Increase of Lorazepam solubility, MCT with 5% Menthol” value is reported as 28%. The “Increase of Lorazepam solubility, MCT with 8% Menthol” value in the data set “physchem” (versus pure MCT oil) is given as ~60%. The “Time to maximal protection” value in the data set with PTZ induced seizures is “approximately 5 minutes”.
